Structures are written as SMILES. Where a name gives a salt, the structure may show the parent alone.

For the experiment, the target named is T1, human EP3 receptor (Homo sapiens, UniProt P43115).
T1 construct: expressed in transfected cells; host or cells: CHO K1 (Chinese Hamster Ovary), stably co-transfected with Galpha16 and mitochondrial clytin
T1 sequence (P43115 1-390): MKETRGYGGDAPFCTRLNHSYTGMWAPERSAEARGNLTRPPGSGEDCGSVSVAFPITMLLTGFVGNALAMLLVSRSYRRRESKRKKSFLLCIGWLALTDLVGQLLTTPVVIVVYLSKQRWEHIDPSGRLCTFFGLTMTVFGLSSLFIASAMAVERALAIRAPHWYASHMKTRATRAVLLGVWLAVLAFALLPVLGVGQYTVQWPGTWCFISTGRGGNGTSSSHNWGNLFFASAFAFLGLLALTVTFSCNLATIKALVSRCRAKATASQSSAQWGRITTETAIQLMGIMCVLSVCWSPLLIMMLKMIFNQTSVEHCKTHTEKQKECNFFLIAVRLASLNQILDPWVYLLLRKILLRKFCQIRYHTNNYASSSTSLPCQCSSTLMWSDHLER
The experiment is described as follows: Cellular in vitro assay for determining EP3 receptor activity (human EP3 cell line, sulprostone-stimulated calcium luminescence). The experiment is classed as cell-based. The settings on record: CHO cells expressing human EP3 and mitochondrial Clytin; antagonist mode, sulprostone at EC50; read-out: EP3 CHO mtCLY ANTAG IC50. Here is the method:
B-1. Cellular In Vitro Assay for Determining EP3 Receptor Activity
The identification of antagonists of the EP3 receptor from humans and rats as well as the quantification of the activity of the compounds of the invention was carried out using recombinant cell lines. These cell lines originally derive from a hamsters ovary epithelial cell (Chinese Hamster Ovary, CHO K1, ATCC: American Type Culture Collection, Manassas, Va. 20108, USA). The test cell lines constitutively express the human or rat EP3 receptors. The naturally Gαi-coupled human and rat EP3 receptors were stably co-transfected with Gα16 into cells that are also stably transfected with a mitochondrial form of the calcium-sensitive photoproteins Clytin (human EP3) or Photina (rat EP3), which, after reconstitution with the cofactor coelenterazine, emit light when there are increases in free calcium concentrations (Nature 1992, 358, 325-327; Gene 1995, 153 (2), 273-274). The resulting EP3 receptor cells react to stimulation of the recombinantly expressed EP3 receptors by the agonist sulprostone with intracellular release of calcium ions, which can be quantified by the resulting photoprotein luminescence. Antagonists inhibit the receptor signaling, leading to reduced calcium release and luminescence. The bioluminescence of the cell lines is detected using a suitable luminometer (Trends Pharmacol. Sci. 1996, 17, 235-237).
Human and Rat EP3 Cell Lines:
On the day before the assay, the cells are plated out in culture medium (OptiMEM, 1% FCS, 2 mM glutamine, 10 mM HEPES, 5 μg/ml coelenterazine) in 384-well microtiter plates and kept in a cell incubator (96% humidity, 5% v/v CO2, 37° C.). On the day of the assay, test compounds in various concentrations are placed for 10 minutes in the wells of the microtiter plate before the agonist sulprostone at EC50 concentration is added. The resulting light signal is measured immediately in a luminometer. All concentrations are measured in quadruples.
Usually IC50 stands for the concentration that inhibits the measured activity by half. For the molecule `Cc1cc(-c2cn3nc(C(=O)N[C@@H](c4ccc(F)cc4)C(C)(C)O)c(C(F)(F)F)c3c(=O)[nH]2)ccc1F` [6-648], the IC50 is 2.77 nM.

Turning to `Cc1ccc(-c2cn3nc(C(=O)NC(CN(C)C)c4ccc(F)cc4)c(C4CC4)c3c(=O)[nH]2)cc1C` (racemic) [6-444], the IC50 was 3.23 nM.

Take `C[C@H](NC(=O)c1nn2cc(-c3ccc(Cl)c(Cl)c3)[nH]c(=O)c2c1C1CC(F)(F)C1)C1CC1` [6-553]: the IC50 is 2.8 nM. For `CN1CC(NC(=O)c2nn3cc(-c4ccc5ccccc5c4)[nH]c(=O)c3c2C(F)(F)F)(c2ccc(F)cc2)C1` [Example 1-32, N-[3-(4-Fluorophenyl)-1-methylazetidin-3-yl]-6-(naphthalen-2-yl)-4-oxo-3-(trifluoromethyl)-4,5-dihydropyrazolo[1,5-a]pyrazine-2-carboxamide], the IC50 is 1.6 nM. For `Cc1ccc(-c2cn3nc(C(=O)N[C@H](CN4CC[C@H](F)C4)c4ccccc4)cc3c(=O)[nH]2)cc1F` [6-643] the value was 1.95 nM. `Cc1ccc(-c2cn3nc(C(=O)NC(CCO)c4ccc(C(F)(F)F)cc4)cc3c(=O)[nH]2)cc1C` (centres unmarked) [Example 1-86, 6-(3,4-Dimethylphenyl)-N-[3-hydroxy-1-[4-(trifluoromethyl)phenyl]propyl]-4-oxo-5H-pyrazolo-[1,5-a]pyrazine-2-carboxamide]: the IC50 came to 0.715 nM. Regarding `Cc1c(C(=O)NC(C)(C)c2cc(Cl)cc(Cl)c2)nn2c(C)c(-c3ccc4ccccc4c3)[nH]c(=O)c12` [Example 3-30, N-[2-(3,5-Dichlorophenyl)propan-2-yl]-3,7-dimethyl-6-(naphthalen-2-yl)-4-oxo-4,5-dihydropyrazolo[1,5-a]pyrazine-2-carboxamide], the IC50 stood at 9.4 nM. As for `COc1ccccc1C(C)NC(=O)c1nn2cc(-c3cnc4cccc(C)c4c3)[nH]c(=O)c2c1C(C)C` (centres unmarked) [Example 4-4, 3-Isopropyl-N-[1-(2-methoxyphenyl)ethyl]-6-(5-methyl-3-quinolyl)-4-oxo-5H-pyrazolo[1,5-a]pyrazine-2-carboxamide], the IC50 is 2.45 nM.

Turning to `Cc1cc(-c2cn3nc(C(=O)NCC(O)C(F)(F)F)c(C4CC4)c3c(=O)[nH]2)ccc1Cl` (single isomer, unassigned) [6-314], the IC50 was 0.85 nM. As for `Cc1ccc(-c2cn3nc(C(=O)N[C@H](C)c4ccc(F)cc4)c(C#N)c3c(=O)[nH]2)cc1C` [Example 1-73, 3-Cyano-6-(3,4-dimethylphenyl)-N-[(1R)-1-(4-fluorophenyl)ethyl]-4-oxo-4,5-dihydropyrazolo-[1,5-a]pyrazine-2-carboxamide], the figure is 1.3 nM; as for `CN1CC(NC(=O)c2nn3cc(-c4ccc(Cl)cc4)[nH]c(=O)c3c2C2CC2)(c2ccc(F)cc2)C1` [6-673], 3.3 nM; as for `Cc1cccc2ncc(-c3cn4nc(C(=O)NC(C)c5ccc(Cl)c(Cl)c5)c(C(C)C)c4c(=O)[nH]3)cc12` (centres unmarked) [Example 4-52, N-[1-(3,4-Dichlorophenyl)ethyl]-3-isopropyl-6-(5-methyl-3-quinolyl)-4-oxo-5H-pyrazolo[1,5-a]pyrazine-2-carboxamide], 4.05 nM.

With `Cc1ccc(-c2cn3nc(C(=O)NC(CO)C(F)(F)F)c(C(F)(F)F)c3c(=O)[nH]2)cc1Cl` (single isomer, unassigned) [6-163], the IC50 was determined as 2.3 nM. Consider `Cc1ccc([C@@H](C)NC(=O)c2nn3c(C)c(-c4ccc5ccccc5c4)[nH]c(=O)c3c2C)cc1` [Example 3-19, 3,7-Dimethyl-N-[(7R)-1-(4-methylphenyl)ethyl]-6-(naphthalen-2-yl)-4-oxo-4,5-dihydropyrazolo[1,5-a]pyrazine-2-carboxamide], for which the IC50 came out at 1.55 nM. As for `Cc1ccc([C@H](C)NC(=O)c2nn3c(C)c(-c4ccc5ccccc5c4)[nH]c(=O)c3c2C)cc1` [Example 3-20, 3,7-Dimethyl-N-[(7S)-1-(4-methylphenyl)ethyl]-6-(naphthalen-2-yl)-4-oxo-4,5-dihydropyrazolo[1,5-a]pyrazine-2-carboxamide], the figure is 8 nM; as for `Cc1cc(-c2cn3nc(C(=O)NC(CO)c4ccc(F)cc4)c(C4CC4)c3c(=O)[nH]2)ccc1C(F)(F)F` (racemic) [6-129], 5.45 nM; as for `Cc1ccc(-c2cn3nc(C(=O)NCC(N)C(F)(F)F)c(C4CC4)c3c(=O)[nH]2)cc1C` (single isomer, unassigned) [6-432], 1.1 nM. In the case of `CC(NC(=O)c1cc2c(=O)[nH]c(-c3ccc4ccccc4c3)cn2n1)c1cnc(OCC(F)(F)F)cn1` (centres unmarked) [6-7], the IC50 stood at 7 nM. As for `CC[C@@H](C)NC(=O)c1nn2cc(-c3ccc(Cl)c(C)c3)[nH]c(=O)c2c1C(F)(F)F` [6-227], the figure is 6.67 nM; as for `CC(=O)N1CC(NC(=O)c2cc3c(=O)[nH]c(-c4ccc5ccccc5c4)cn3n2)(c2ccc(F)cc2)C1` [Example 1-146, N-[1-Acetyl-3-(4-fluorophenyl)azetidin-3-yl]-6-(2-naphthyl)-4-oxo-5H-pyrazolo[1,5-a]pyrazine-2-carboxamide], 4.5 nM; as for `Cc1c(C(=O)N[C@@H](CO)c2ccccc2)nn2c(C)c(-c3ccc4ccccc4c3)[nH]c(=O)c12` [Example 3-71, N-[(1R)-2-Hydroxy-1-phenylethyl]-3,7-dimethyl-6-(naphthalen-2-yl)-4-oxo-4,5-dihydropyrazolo[1,5-a]pyrazine-2-carboxamide], 9.45 nM. For `Cc1cc(-c2cn3nc(C(=O)NCC(O)(C(F)(F)F)C(F)(F)F)c(C4CC4)c3c(=O)[nH]2)ccc1Cl` [6-305] the value was 2.95 nM; for `COCc1c(C(=O)N[C@H](C)c2ccc(F)cc2)nn2cc(-c3ccc4ccccc4c3)[nH]c(=O)c12` [Example 1-20, N-[(1R)-1-(4-Fluorophenyl)ethyl]-3-(methoxymethyl)-6-(naphthalen-2-yl)-4-oxo-4,5-dihydropyrazolo[1,5-a]pyrazine-2-carboxamide], 1.09 nM. In the case of `C[C@H](NC(=O)c1cc2c(=O)[nH]c(-c3ccc4ccccc4c3)cn2n1)c1ccccc1` [Example 2-34, 6-(2-Naphthyl)-4-oxo-N-[(7S)-1-phenylethyl]-4,5-dihydropyrazolo[1,5-a]pyrazine-2-carboxamide], the IC50 is 1.9 nM. As for `O=C(N[C@H](CCO)c1ccc(F)cc1)c1nn2cc(-c3ccc(Cl)cc3)[nH]c(=O)c2c1C1CC1` [6-674], the IC50 was 0.79 nM. Turning to `CN(C)C[C@@H](NC(=O)c1cc2c(=O)[nH]c(-c3ccc4ccccc4c3)cn2n1)c1ccccc1` [Example 1-38, N-[(1S)-2-(Dimethylamino)-1-phenylethyl]-6-(naphthalen-2-yl)-4-oxo-4,5-dihydropyrazolo[1,5-a]-pyrazine-2-carboxamide formic acid salt], the IC50 turned out to be 4.09 nM. For `Cc1cccc2ncc(-c3cn4nc(C(=O)NCCn5ccc(C6CC6)n5)c(C(C)C)c4c(=O)[nH]3)cc12` [Example 4-40, N-[2-(3-Cyclopropyl-1H-pyrazol-1-yl)ethyl]-6-(5-methylquinolin-3-yl)-4-oxo-3-(propan-2-yl)-4,5-dihydropyrazolo[1,5-a]pyrazine-2-carboxamide] the value was 0.85 nM. In the case of `O=C(N[C@@H](c1ccc(F)cc1)C(F)(F)CO)c1nn2cc(-c3cc(F)c(Cl)c(F)c3)[nH]c(=O)c2c1C1CC1` [6-474], the IC50 is 1.63 nM. As for `O=C(N[C@H](CCO)c1ccc(F)cc1)c1cc2c(=O)[nH]c(-c3cnc4ccccc4c3)cn2n1` [6-11], the IC50 is 4.65 nM. Regarding `Cc1cc(-c2cn3nc(C(=O)NC4(c5ccccc5)CCOCC4)c(C(F)(F)F)c3c(=O)[nH]2)ccc1Cl` [6-230], the IC50 came to 1.6 nM. `Cc1ccc(-c2cn3nc(C(=O)NC4(c5ccc(F)cc5)CN(C)C4)c(C(F)(F)F)c3c(=O)[nH]2)cc1Cl` [Example 1-153, 6-(3-Chloro-4-methylphenyl)-N-[3-(4-fluorophenyl)-1-methylazetidin-3-yl]-4-oxo-3-(trifluoromethyl)-4,5-dihydropyrazolo[1,5-a]pyrazine-2-carboxamide]: the IC50 turned out to be 5.4 nM. Take `N#Cc1c(C(=O)N[C@H](CCO)c2ccc(F)cc2)nn2cc(-c3ccc4ccccc4c3)[nH]c(=O)c12` [Example 1-71, 3-Cyano-N-[(1R)-1-(4-fluorophenyl)-3-hydroxypropyl]-6-(naphthalen-2-yl)-4-oxo-4,5-dihydropyrazolo[1,5-a]pyrazine-2-carboxamide]: the IC50 was 1.45 nM.

For the origin of these results see patent US20220324865A1 (Bayer Aktiengesellschaft, priority 2018, published 2022).
